“And” between values parts separate entries of the source, which are not always exact repeats. Equal values may be shown once.
molecular target: T1, human serum albumin (HSA) (Homo sapiens, UniProt P02768); assay: Taylor dispersion (OneStep) SPR, kinetic analysis of flavonoids on immobilized HSA; type: binding; conditions: HSA, Site 1, 25 °C, OneStep SPR, global kinetic fit (1:2 model; kaempferol 1:1); read-out: KD (equilibrium dissociation constant), Site 1
T1 construct: purchased Sigma Aldrich
Experimental: (§1) Hydroxyl-gel modified sensor chips and coupling reagents for the Pioneer SPR instrument (SensiQ Technologies, Oklahoma City, OK, USA) were obtained from Xantec (Duesseldorf, Germany). […] All analyses were performed at 25 °C. 10 mM HEPES (pH 7.4) with 150 mM NaCl, 0.005% Tween-20, 1.26 mM EDTA, and 5% DMSO was used as the running buffer.
(§2) HSA (essentially fatty acid free; Sigma Aldrich, St. Louis, MO, USA) and GSTP1 (Fitzgerald Industries International, North Acton, MA, USA) (50 μg/mL in 10 mM sodium acetate, pH 5.0) were immobilized on polycarboxylate hydrogel sensor chip surfaces using a standard amine-coupling protocol (flow rate of 10 μL/min) to obtain a density of 10–12 kRU [18]. Each of the four flavonoids was dissolved in DMSO to achieve a high concentration, then further diluted to a final 5% DMSO concentration in running buffer. Typically, the flavonoid concentration series spanned 0.01–500 μM. Five blanks were analyzed at the beginning of the analysis, and the remaining blanks were randomly injected throughout the analysis for double-referencing purposes.
(§3) In this study, we explored the SensiQ Pioneer’s dynamic SPR capability (also known as the OneStep® injection method), which is essentially a Taylor dispersion to create a gradient injection to quantify biomolecular interactions. In the Taylor dispersion method, analyte concentration is initially uniform, but it gradually changes into a sigmoidal gradient due to the combined actions of analyte diffusion and convective laminar flow within the dispersion capillary. This method saves sample preparation time, lessens the need for limited-supply sample materials, and eliminates possible human errors in the preparation of sample dilutions. Since the compounds are screened over a broader dilution range, content-rich data can be obtained from the preliminary screening step itself, and oftentimes, secondary screening can be avoided. A Taylor dispersion gradient injection of sucrose (3% w/v in running buffer) was performed in parallel as a diffusion standard to account for experimental deviations such as buffer viscosity, flow rate, temperature, etc. The analytes were injected in running buffer using the same Taylor diffusion gradient injection mode with a flow rate of 25 μL/min.
(§4) SPR response data (sensorgrams) were zeroed at the beginning of each injection and double referenced. For kinetic analyses, the responses were plotted against the analyte concentration and fit to a 1:1 (A + B = AB) or 1:2 (A + 2B = AB1 + AB2) binding model using Qdat analysis software (SensiQ Technologies, Inc., Oklahoma City, OK, USA) and GraphPad Prism 5.04 (GraphPad Software Inc., La Jolla, CA, USA).

T1 sequence (P02768 25-609): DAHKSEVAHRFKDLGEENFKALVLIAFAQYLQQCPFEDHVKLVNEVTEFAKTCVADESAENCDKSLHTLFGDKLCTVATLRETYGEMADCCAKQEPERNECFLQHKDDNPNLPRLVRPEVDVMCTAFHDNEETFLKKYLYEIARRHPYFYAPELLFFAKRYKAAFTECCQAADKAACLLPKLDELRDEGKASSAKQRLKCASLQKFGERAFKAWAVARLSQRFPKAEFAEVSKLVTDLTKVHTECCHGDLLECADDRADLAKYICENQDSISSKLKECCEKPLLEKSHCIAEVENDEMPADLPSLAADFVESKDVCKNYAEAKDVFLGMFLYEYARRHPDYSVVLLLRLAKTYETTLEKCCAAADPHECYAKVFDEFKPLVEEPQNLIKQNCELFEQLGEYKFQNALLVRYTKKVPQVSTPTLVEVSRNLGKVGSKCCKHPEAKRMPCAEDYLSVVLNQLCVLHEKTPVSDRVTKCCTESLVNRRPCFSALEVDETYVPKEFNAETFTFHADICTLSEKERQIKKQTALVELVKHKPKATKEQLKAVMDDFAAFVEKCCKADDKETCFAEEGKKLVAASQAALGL

**Q.** How did the Kd turn out when O=c1c(O)c(-c2ccc(O)cc2)oc2cc(O)cc(O)c12 [Kaempferol, kaempferol] was run?
**A.** 0.037 µM

**Q.** For O=c1cc(-c2ccc(O)c(O)c2)oc2cc(O)cc(O)c12 [Luteolin, luteolin], which Kd is on record?
**A.** 63.4 µM

**Q.** O=c1c(O)c(-c2ccc(O)c(O)c2)oc2cc(O)cc(O)c12 [Quercetin, quercetin] was tested. Which Kd did it give?
**A.** 0.063 µM

**Q.** Which Kd does the source give for Oc1ccc(/C=C/c2cc(O)cc(O)c2)cc1 [Resveratrol, resveratrol] here?
**A.** 0.4 µM

same assay, conditions: human, pH 7.4

**Q.** How did the Kd turn out when O=c1cc(-c2ccc(O)c(O)c2)oc2cc(O)cc(O)c12 [Luteolin, luteolin] was run?
**A.** 406 µM

**Q.** Which Kd does the source give for O=c1c(O)c(-c2ccc(O)c(O)c2)oc2cc(O)cc(O)c12 [Quercetin, quercetin] here?
**A.** > 500 µM

**Q.** How did the Kd turn out when Oc1ccc(/C=C/c2cc(O)cc(O)c2)cc1 [Resveratrol, resveratrol] was run?
**A.** 180 µM

same assay, conditions: human, pH 7.4, HSA, Site 1, 25 °C, OneStep SPR, global kinetic fit (1:2 model; kaempferol 1:1); read-out: ka (association rate constant), Site 1

**Q.** With O=c1c(O)c(-c2ccc(O)cc2)oc2cc(O)cc(O)c12 [Kaempferol, kaempferol] as the molecule, how does the kon read?
**A.** 48400 ± 6e+06 M⁻¹ s⁻¹

**Q.** Which kon does the source give for O=c1cc(-c2ccc(O)c(O)c2)oc2cc(O)cc(O)c12 [Luteolin, luteolin] here?
**A.** 3200 ± 300000 M⁻¹ s⁻¹

**Q.** Which kon does the source give for O=c1c(O)c(-c2ccc(O)c(O)c2)oc2cc(O)cc(O)c12 [Quercetin, quercetin] here?
**A.** 240000 ± 1e+08 M⁻¹ s⁻¹

**Q.** Oc1ccc(/C=C/c2cc(O)cc(O)c2)cc1 [Resveratrol, resveratrol] was tested. Which kon did it give?
**A.** 7000 ± 200000 M⁻¹ s⁻¹

same assay, conditions: human, pH 7.4, HSA, Site 1, 25 °C, OneStep SPR, global kinetic fit (1:2 model; kaempferol 1:1); read-out: kd (dissociation rate constant), Site 1

**Q.** Which koff does the source give for O=c1c(O)c(-c2ccc(O)cc2)oc2cc(O)cc(O)c12 [Kaempferol, kaempferol] here?
**A.** 0.002 ± 0.002 s⁻¹

**Q.** With O=c1cc(-c2ccc(O)c(O)c2)oc2cc(O)cc(O)c12 [Luteolin, luteolin] as the molecule, how does the koff read?
**A.** 0.205 ± 0.005 s⁻¹

**Q.** O=c1c(O)c(-c2ccc(O)c(O)c2)oc2cc(O)cc(O)c12 [Quercetin, quercetin] was tested. Which koff did it give?
**A.** 0.016 ± 0.003 s⁻¹

**Q.** How did the koff turn out when Oc1ccc(/C=C/c2cc(O)cc(O)c2)cc1 [Resveratrol, resveratrol] was run?
**A.** 0.003 ± 0.002 s⁻¹

same assay, conditions: human, pH 7.4, HSA, Site 2, 25 °C, OneStep SPR, 1:2 model; read-out: ka (association rate constant), Site 2

**Q.** O=c1cc(-c2ccc(O)c(O)c2)oc2cc(O)cc(O)c12 [Luteolin, luteolin] was tested. Which kon did it give?
**A.** 17.1 ± 1 M⁻¹ s⁻¹

**Q.** For O=c1c(O)c(-c2ccc(O)c(O)c2)oc2cc(O)cc(O)c12 [Quercetin, quercetin], which kon is on record?
**A.** 100 ± 1000 M⁻¹ s⁻¹

**Q.** Oc1ccc(/C=C/c2cc(O)cc(O)c2)cc1 [Resveratrol, resveratrol] was tested. Which kon did it give?
**A.** 2900 ± 600000 M⁻¹ s⁻¹

same assay, conditions: human, pH 7.4, HSA, Site 2, 25 °C, OneStep SPR, 1:2 model; read-out: kd (dissociation rate constant), Site 2

**Q.** With O=c1cc(-c2ccc(O)c(O)c2)oc2cc(O)cc(O)c12 [Luteolin, luteolin] as the molecule, how does the koff read?
**A.** 0.007 ± 0.001 s⁻¹

**Q.** O=c1c(O)c(-c2ccc(O)c(O)c2)oc2cc(O)cc(O)c12 [Quercetin, quercetin] was tested. Which koff did it give?
**A.** 0.405 ± 0.004 s⁻¹

**Q.** Oc1ccc(/C=C/c2cc(O)cc(O)c2)cc1 [Resveratrol, resveratrol] was tested. Which koff did it give?
**A.** 0.52 ± 0.003 s⁻¹

molecular target: T1, human serum albumin (HSA); assay: Conventional (standard fixed-concentration injection) SPR, HSA-quercetin validation; type: binding; conditions: HSA, conventional SPR, two fold dilution series from 500 μM, quadruplicate, 1:2 model; read-out: KD1 (affinity towards HSA)
Experimental: as §1, §2
For assay validation, a conventional SPR method was used as a comparison. The interaction of HSA with quercetin was chosen for validation. For the conventional SPR method, analyte dilutions were prepared manually in a twofold dilution series starting with 500 μM as the highest concentration. […]

**Q.** For O=c1c(O)c(-c2ccc(O)c(O)c2)oc2cc(O)cc(O)c12 [Quercetin, quercetin], which Kd is on record?
**A.** 0.068 ± 0.002 µM

same assay, conditions: human, pH 7.4

**Q.** How did the Kd turn out when O=c1c(O)c(-c2ccc(O)c(O)c2)oc2cc(O)cc(O)c12 [Quercetin, quercetin] was run?
**A.** > 500 µM

molecular target: T2, glutathione S-transferase pi isoform-1 (GSTP1) (Homo sapiens, UniProt P09211); assay: Taylor dispersion (OneStep) SPR, equilibrium analysis of flavonoids on immobilized GSTP1; conditions: GSTP1, one binding site, 1:1 equilibrium analysis model, 25 °C
T2 construct: purchased Fitzgerald Industries International
Experimental: as §1, §2, §3
as §4, with “USA). […]” for “USA).”

T2 sequence (P09211 whole entry, canonical isoform): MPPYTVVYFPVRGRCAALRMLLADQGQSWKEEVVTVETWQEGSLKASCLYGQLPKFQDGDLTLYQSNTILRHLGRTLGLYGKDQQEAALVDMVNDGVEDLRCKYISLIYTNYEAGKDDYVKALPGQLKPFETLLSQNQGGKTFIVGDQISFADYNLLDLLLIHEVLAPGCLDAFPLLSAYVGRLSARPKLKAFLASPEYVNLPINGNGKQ

**Q.** With O=c1c(O)c(-c2ccc(O)cc2)oc2cc(O)cc(O)c12 [Kaempferol, kaempferol] as the molecule, how does the Kd read?
**A.** 45 ± 0.2 µM

**Q.** Which Kd does the source give for O=c1cc(-c2ccc(O)c(O)c2)oc2cc(O)cc(O)c12 [Luteolin, luteolin] here?
**A.** 31.5 ± 0.2 µM

**Q.** Which Kd does the source give for O=c1c(O)c(-c2ccc(O)c(O)c2)oc2cc(O)cc(O)c12 [Quercetin, quercetin] here?
**A.** ~27.5 µM and 27.5 µM

**Q.** Which Kd does the source give for Oc1ccc(/C=C/c2cc(O)cc(O)c2)cc1 [Resveratrol, resveratrol] here?
**A.** 78 ± 0.1 µM
